Results taken from paper PMC8848768, “Synthesis and evaluation of potent yaku'amide A analogs” (Chemical Science, 2022).
Like-named read-outs stand apart in the source and are kept apart here. Numbered stars: 1 amine (or outer) side, 2 acyl side, 3 side chain; on linkers, the order of the positions; unused ones are H or OH. Square brackets hold non-standard residues; d marks the D form. Peptide text beside a SMILES is read from it. * marks the point of attachment. Heptanoyl(3-oxo-2,2,4S,6-Me) = CC(C)C[C@H](C)C(=O)C(C)(C)C(=O)*; NH((S)-1-NMe2-3-Me-but-2-yl) = CC(C)[C@@H](CN(C)C)N*; Ile(3R-OH) = CC[C@@](C)(O)[C@H](N)C(=O)O; dVal(3-OH) = CC(C)(O)[C@@H](N)C(=O)O; d(aIle) = CC[C@H](C)[C@@H](N)C(=O)O; Val(3-OH) = CC(C)(O)[C@H](N)C(=O)O; X1 = CCC(CC)=C(N[*:1])C(=O)[*:2]; NHCH2CH2NMe2 = CN(C)CCN*; ΔVal = CC(C)=C(N)C(=O)O

Columns and labels:
A549 = assay: cells; settings: read-out: Aver IC50, A549
Experimental: (§1) The antiproliferative activity profiles of 1a, its full-length analogs 2a and 2b, and its partial structures (23, 24, 26, and 30) were determined by in vitro screening in 72 hours MTS cell proliferation assays against a panel of 18 different human cancer cell lines. […] The three peptides were also evaluated for their antiproliferative activity against the lung fibroblast MRC5 cell line.
(§2) Cells (40 µ L) are added into individual wells of a 384-well black/clear bottom plate on day zero at concentrations enabling continuous log growth over the course of the assay. On day one, compounds (or DMSO) are transferred using an ATS-liquid handler (100 nL per well) to individual wells containing cells and the cells are treated for 72 hours (37 °C, 5% CO 2) prior to measuring proliferation using MTS reagent following manufacturer’s instructions. Net OD values are determined by subtracting the average OD values of cells (measured on day 1, T = 0) from average total OD value of cells (measured on day 4, T = 72h). IC 50 values are calculated using proprietary software (IC 50 values normalized against all compounds). Results represent n>2 independent studies (in duplicate).
(§3) Table S1. Antiproliferative Data of Compounds 1a, 2a, 2b, 23, 24, 26, and 30.
(§4) Table S2. Human Cell Line Descriptions.
(§5) Human Cell Line* Description
(§6) *All cells were obtained from ATCC and are authenticated

HT29 = assay: cells; settings: read-out: Aver IC50, HT29
Experimental: as §1, §2, §3, §4, §5, §6

CALU6 = assay: cells; settings: read-out: Aver IC50, CALU6
Experimental: as §1, §2, §3, §4, §5, §6

COLO678 = assay: cells; settings: read-out: Aver IC50, COLO678
Experimental: as §1, §2, §3, §4, §5, §6

A375 = assay: cells; settings: read-out: Aver IC50, A375
Experimental: as §1, §2, §3, §4, §5, §6

SNUC1 = assay: cells; settings: read-out: Aver IC50, SNUC1
Experimental: as §1, §2, §3, §4, §5, §6

[1] = system: lung fibroblast MRC5 cell line; assay: cells; settings: read-out: Aver IC50, MRC5
Experimental: as §1, §2, §3, §4, §5, §6

BXPC3 = assay: cells; settings: read-out: Aver IC50, BXPC3
Experimental: as §1, §2, §3, §4, §5, §6

OVCAR3 = assay: cells; settings: read-out: Aver IC50, OVCAR3
Experimental: as §1, §2, §3, §4, §5, §6

JURKAT = assay: cells; settings: read-out: Aver IC50, JURKAT
Experimental: as §1, §2, §3, §4, §5, §6

HCT116 = assay: cells; settings: read-out: Aver IC50, HCT116
Experimental: as §1, §2, §3, §4, §5, §6

NCIH1048 = assay: cells; settings: read-out: Aver IC50, NCIH1048
Experimental: as §1, §2, §3, §4, §5, §6

MV411 = assay: cells; settings: read-out: Aver IC50, MV411
Experimental: as §1, §2, §3, §4, §5, §6

THP1 = assay: cells; settings: read-out: Aver IC50, THP1
Experimental: as §1, §2, §3, §4, §5, §6

HL60 = assay: cells; settings: read-out: Aver IC50, HL60
Experimental: as §1, §2, §3, §4, §5, §6

RAMOS = assay: cells; settings: read-out: Aver IC50, RAMOS
Experimental: as §1, §2, §3, §4, §5, §6

U937 = assay: cells; settings: read-out: Aver IC50, U937
Experimental: as §1, §2, §3, §4, §5, §6

PANC1005 = assay: cells; settings: read-out: Aver IC50, PANC1005
Experimental: as §1, §2, §3, §4, §5, §6

MCF7 = settings: read-out: Aver IC50, MCF7; MCF7 (Breast Carcinoma); MTS, 72 hours, 37 °C, 5% CO2, 384-well; n>2 independent studies (in duplicate)
Experimental: as §1, §2, §3, §4, §5, §6

[2] = A549 (Lung - NSCLC), MTS, 72 hours, 37 °C, 5% CO2, 384-well, n>2 independent studies (in duplicate)
[3] = HT29 (Colon Carcinoma), MTS, 72 hours, 37 °C, 5% CO2, 384-well, n>2 independent studies (in duplicate)
[4] = CALU6 (Lung - Adenocarcinoma), MTS, 72 hours, 37 °C, 5% CO2, 384-well, n>2 independent studies (in duplicate)
[5] = COLO678 (Colon Carcinoma), MTS, 72 hours, 37 °C, 5% CO2, 384-well, n>2 independent studies (in duplicate)
[6] = A375 (Malignant Melanoma), MTS, 72 hours, 37 °C, 5% CO2, 384-well, n>2 independent studies (in duplicate)
[7] = SNUC1 (Colon Carcinoma), MTS, 72 hours, 37 °C, 5% CO2, 384-well, n>2 independent studies (in duplicate)
[8] = MRC5 (Lung Fibroblast, noncancerous), MTS, 72 hours, 37 °C, 5% CO2, 384-well, n>2 independent studies (in duplicate)
[9] = BXPC3 (Pancreatic - Adenocarcinoma), MTS, 72 hours, 37 °C, 5% CO2, 384-well, n>2 independent studies (in duplicate)
[10] = OVCAR3 (Ovary - Adenocarcinoma), MTS, 72 hours, 37 °C, 5% CO2, 384-well, n>2 independent studies (in duplicate)
[11] = JURKAT (acute T-cell leukemia), MTS, 72 hours, 37 °C, 5% CO2, 384-well, n>2 independent studies (in duplicate)
[12] = HCT116 (Colon Carcinoma), MTS, 72 hours, 37 °C, 5% CO2, 384-well, n>2 independent studies (in duplicate)
[13] = NCIH1048 (Lung - SCLC), MTS, 72 hours, 37 °C, 5% CO2, 384-well, n>2 independent studies (in duplicate)
[14] = MV411 (Acute Myeloid Leukemia), MTS, 72 hours, 37 °C, 5% CO2, 384-well, n>2 independent studies (in duplicate)
[15] = THP1 (Acute Monocytic Leukemia), MTS, 72 hours, 37 °C, 5% CO2, 384-well, n>2 independent studies (in duplicate)
[16] = HL60 (Leukema - Promyelocytic), MTS, 72 hours, 37 °C, 5% CO2, 384-well, n>2 independent studies (in duplicate)
[17] = RAMOS (Burkitt's lymphoma), MTS, 72 hours, 37 °C, 5% CO2, 384-well, n>2 independent studies (in duplicate)
[18] = U937 (Pro-monocytic, Human Myeloid Leukemia), MTS, 72 hours, 37 °C, 5% CO2, 384-well, n>2 independent studies (in duplicate)
[19] = PANC1005 (Pancreatic - Adenocarcinoma), MTS, 72 hours, 37 °C, 5% CO2, 384-well, n>2 independent studies (in duplicate)

## CC[C@@]1(O)C(=O)OCc2c1cc1n(c2=O)Cc2cc3ccccc3nc2-1 [Camptothecin, reference compound]
A549; Homo sapiens, A549, 72 h
  IC50: 0.0277 µM
HT29; Homo sapiens, HT-29, 72 h
  IC50: 0.103 µM
CALU6; Homo sapiens, Calu-6, 72 h
  IC50: 0.0102 µM
COLO678; Homo sapiens, COLO-678, 72 h
  IC50: 0.126 µM
A375; Homo sapiens, A-375, 72 h
  IC50: 0.0059 µM
SNUC1; Homo sapiens, SNU-C1, 72 h
  IC50: 0.0474 µM
[1]; Homo sapiens, MRC5, 72 h
  IC50: 0.0525 µM
BXPC3; Homo sapiens, BXPC-3, 72 h
  IC50: 0.0384 µM
OVCAR3; Homo sapiens, OVCAR-3, 72 h
  IC50: 0.0534 µM
JURKAT; Homo sapiens, Jurkat, 72 h
  IC50: 0.0073 µM
HCT116; Homo sapiens, HCT-116, 72 h
  IC50: 0.0109 µM
NCIH1048; Homo sapiens, NCI-H1048, 72 h
  IC50: 0.0097 µM
MV411; Homo sapiens, MV4-11, 72 h
  IC50: 0.0071 µM
THP1; Homo sapiens, THP-1, 72 h
  IC50: 0.0449 µM
HL60; Homo sapiens, HL-60, 72 h
  IC50: 0.021 µM
RAMOS; Homo sapiens, Ramos, 72 h
  IC50: 0.0097 µM
U937; Homo sapiens, U-937, 72 h
  IC50: 0.0197 µM
PANC1005; Homo sapiens, Panc1005, 72 h
  IC50: 0.0453 µM

## CCC(CC)=C(NC(=O)CNC(=O)C(NC(=O)[C@@H](NC(=O)C(C)(C)C(=O)[C@@H](C)CC(C)C)[C@](C)(O)CC)=C(C)C)C(=O)N[C@@H](C(=O)N[C@@H](C(=O)N[C@@H](C(=O)N[C@H](C(=O)NC(C(=O)N[C@H](C)C(=O)NCCN(C)C)=C(C)C)C(C)(C)O)C(C)(C)O)[C@@H](C)CC)C(C)C [Compound 30] ({Heptanoyl(3-oxo-2,2,4S,6-Me)}-[Ile(3R-OH)][ΔVal]G[X1][dV][d(aIle)][dVal(3-OH)][Val(3-OH)][ΔVal][dA]-NHCH2CH2NMe2)
MCF7
  IC50: 12.6 µM
A549; [2]
  IC50: 20.6 µM
HT29; [3]
  IC50: > 25 µM
CALU6; [4]
  IC50: > 25 µM
COLO678; [5]
  IC50: > 25 µM
A375; [6]
  IC50: 24.7 µM
SNUC1; [7]
  IC50: 20.6 µM
[1]; [8]
  IC50: > 25 µM
BXPC3; [9]
  IC50: > 25 µM
OVCAR3; [10]
  IC50: 12.6 µM
JURKAT; [11]
  IC50: 22.8 µM
HCT116; [12]
  IC50: > 25 µM
NCIH1048; [13]
  IC50: > 25 µM
MV411; [14]
  IC50: 2.7 µM
THP1; [15]
  IC50: > 25 µM
HL60; [16]
  IC50: 20 µM
RAMOS; [17]
  IC50: 24.3 µM
U937; [18]
  IC50: > 25 µM
PANC1005; [19]
  IC50: > 25 µM

## CCC(CC)=C(NC(=O)CNC(=O)C(NC(=O)[C@@H](NC(=O)C(C)(C)C(=O)[C@@H](C)CC(C)C)[C@](C)(O)CC)=C(C)C)C(=O)N[C@@H](C(=O)N[C@@H](C(=O)N[C@@H](C(=O)N[C@H](C(=O)NC(C(=O)N[C@H](C)C(=O)N[C@@H](C(=O)N[C@H](C(=O)NC(C(=O)N[C@H](CN(C)C)C(C)C)=C(C)C)C(C)C)C(C)C)=C(C)C)C(C)(C)O)C(C)(C)O)[C@@H](C)CC)C(C)C [Compound 2b] ({Heptanoyl(3-oxo-2,2,4S,6-Me)}-[Ile(3R-OH)][ΔVal]G[X1][dV][d(aIle)][dVal(3-OH)][Val(3-OH)][ΔVal][dA][dV]V[ΔVal]-{NH((S)-1-NMe2-3-Me-but-2-yl)})
MCF7
  IC50: 13 µM
A549; [2]
  IC50: 0.249 µM
HT29; [3]
  IC50: 5.25 µM
CALU6; [4]
  IC50: 1 µM
COLO678; [5]
  IC50: 6.5 µM
A375; [6]
  IC50: 0.254 µM
SNUC1; [7]
  IC50: 0.0583 µM
[1]; [8]
  IC50: 17.5 µM
BXPC3; [9]
  IC50: 9.31 µM
OVCAR3; [10]
  IC50: 0.185 µM
JURKAT; [11]
  IC50: 13.4 µM
HCT116; [12]
  IC50: 4.26 µM
NCIH1048; [13]
  IC50: 2.37 µM
MV411; [14]
  IC50: 0.0488 µM
THP1; [15]
  IC50: 9.69 µM
HL60; [16]
  IC50: 0.465 µM
RAMOS; [17]
  IC50: 1.2 µM
U937; [18]
  IC50: 0.947 µM
PANC1005; [19]
  IC50: 8.81 µM
